Measurements: patent US20260206828A1, “CONSTITUENT MEMBER PERFUMED BY FLAVOR RAW MATERIAL AND SMOKING ARTICLE” (Japan Tobacco Inc., priority 2022, published 2026)

What was measured:
[1] = Retention index (RI) measurement by GC/MS; assay type: physicochemical; settings: HP-5 MS column (95% dimethylpolysiloxane/5% phenyl-methylpolysiloxane), 1000 ppm in ethanol, n-alkane mixture C6-C35, linear method
Method: Menthol (L-Menthol, manufactured by Takasago International Corporation) and cooling sensation agents (the abovementioned COOLACT® 370, COOLACT® 5, COOLACT® 10, COOLACT® 20, Symcool® WS-5, and Symcool® WS-23) were respectively diluted by adding ethanol to obtain diluted solutions of menthol and each cooling sensation agent diluted to 1000 ppm in ethanol.
Gas chromatography with a mass spectrometer (GC/MS) was then performed on the abovementioned diluted solutions thus obtained.
• Apparatus: 7890B/5977B GC/MSD, manufactured by Agilent Technologies GC conditions • Column: HP-5 MS (manufactured by Agilent Technologies) • Inner diameter 0.25 mm×length 30 m, film thickness 0.25 μm • Injection volume: 1 μL • Injection mode: Split (10:1) • Injection port temperature: 270° C. • Septum purge flow: 5 ml/minute • Carrier gas: Helium (He) • Column flow rate: 1 mL/minute (constant flow mode) • Oven temperature: From 40° C. (3 minutes) to 280° C. (20 minutes) at a rate of 4° C./minute • Transfer line temperature: 280° C. MS conditions • Solvent wait time: 4 minutes • Ionization method: Electron impact ionization (EI), 70 eV • Ion source temperature: 230° C. • Quadrupole temperature: 150° C. • Measurement mode: Scan • MS scan range: m/z 26-450 • Threshold: 50 • Sampling rate: 2
The chromatogram retention index (RI) obtained by the abovementioned GC/MS analysis was calculated by the following method.
The RI of menthol or respective cooling agent was calculated by a linear method on the basis of an n-alkane mixture ranging from n-hexane (C6, RI: 600) to n-pentatriacontane (C35, RI: 3500) Note that the n-alkane mixture used in calculating the RI is not limited thereto.

[2] = Storage resistance by GC/MS: residual rate in tobacco filler in an open system; assay type: physicochemical; settings: 5,000 ppm in tobacco filler, open system on a tray, 5 days in an incubator, internal standard quinoline
Method: Solutions were prepared by dissolving menthol and other cooling agents (the abovementioned COOLACT® 370 and Symcool® WS-23) respectively through addition of ethanol thereto. Each solution thus obtained was added to the tobacco filler portion of a combustion smoking article, using a microsyringe (MS-50, Ito Microsyringe, manufactured by Ito Seisakusho), such that that the content of menthol or other cooling sensation agent was 5,000 ppm relative to the weight of the tobacco, and the samples immediately after addition were considered to be “pre-storage cigarette samples.” Each solution thus obtained was also added to the tobacco filler portion of a heat-not-burn smoking article (a tobacco stick comprising a tobacco filler portion and a filter portion), using the abovementioned microsyringe, such that that the menthol or other cooling sensation agent content was 5,000 ppm relative to the weight of the tobacco therein, and the samples immediately after addition were considered to be “pre-storage tobacco stick samples.” The cigarettes and tobacco sticks injected with menthol or other cooling sensation agent were then placed on a tray (DT-1 disposable tray, manufactured by As One), stored for 5 days in an incubator (SCI-13 compact incubator, manufactured by Shibata), and were respectively considered to be “post-storage cigarette samples” and “post-storage tobacco stick samples.”
In addition, 1.0 g of quinoline was precisely weighed out as an internal standard, and diluted to 1 L with methanol to serve as an extraction solvent.
The pre-storage cigarette samples, pre-storage tobacco stick samples, post-storage cigarette samples, and post-storage tobacco stick samples obtained as described above then underwent the following treatment. • The tobacco filler portion was removed from each sample and placed in a screw tube, and 10 mL of the extraction solvent, prepared as described above, was added. The screw tubes were then shaken at 200 rpm for 20 minutes, and, after having been left to stand overnight, shaken again at 200 rpm for 20 minutes to obtain tobacco filler portion extract samples. The extract samples obtained from the pre-storage cigarette samples, pre-storage tobacco stick samples, post-storage cigarette samples, and post-storage tobacco stick samples were respectively considered to be “pre-storage cigarette extract samples,” “pre-storage tobacco stick extract samples,” “post-storage cigarette extract samples,” and “post-storage tobacco stick extract samples.”
The extract samples thus obtained were each collected using a syringe (25 mL, SS-02SZ, manufactured by Terumo Corporation) and filtered through a filter (0.45 μm, Prem Syringe Filter, RC, manufactured by Agilent Technologies), and the liquids obtained after filtration were respectively considered to be extract samples for pre-storage cigarette analysis, extract samples for pre-storage tobacco stick analysis, extract samples for post-storage cigarette analysis, and extract samples for post-storage tobacco stick analysis.
The target ions and qualifier ions shown below were selected for the respective cooling sensation agents. A target ion and qualifier ion were also selected for quinoline, used as the internal standard. • Menthol (target ion: m/z=95.1, qualifier ion: m/z=71.0, 81.1) • […] (target ion: m/z=114.0, qualifier ion: m/z=57.0, 102.0) • COOLACT® 370 (target ion: m/z=211.2, qualifier ion: m/z=97.0, 168.1) • Quinoline (target ion: m/z=129.1, qualifier ion: m/z=76.0, 102.0)
• Column: HP-5 MS (manufactured by Agilent Technologies), inner diameter 0.25 mm×length 30 m, film thickness 0.25 μm • Injection volume: 1 μL • Injection mode: Split (10:1) • Injection port temperature: 270° C. • Septum purge flow rate: 5 mL/minute • Carrier gas: Helium (He) • Column flow rate: 1 ml/minute (constant flow mode) • Oven: 40° C. (for 3 minutes) to 280° C. (for 10 minutes) at 10° C./minute […]

[3] = Storage resistance by GC/MS: migration from tobacco filler to filter in a closed system; assay type: physicochemical; settings: tobacco sticks, 2,500, 5,000 and 10,000 ppm
Method: A solution was prepared by dissolving a methyl menthol derivative (the abovementioned COOLACT® 370) through addition of methanol thereto. The solution thus obtained was added using the microsyringe described above to the tobacco filler of portion of an unheated smoking article (a tobacco stick comprising a tobacco filler portion and a filter portion), using the abovementioned microsyringe, such that the methyl menthol derivative content was 2,500 ppm, 5,000 ppm, or 10,000 ppm relative to the weight of tobacco therein, and the samples immediately after addition were considered to be “pre-storage tobacco stick samples.” Each tobacco stick injected with the methyl menthol derivative was placed in a Lami-Zip bag (AL-5, manufactured by Seisannipponsha), and left in an incubator (an SCI-13 compact incubator, manufactured by Shibata) for 5 days to provide a “post-storage tobacco stick sample.”
The pre-storage and post-storage tobacco stick samples obtained in the abovementioned manner underwent the following processing. • The tobacco filler portion and filter portion were removed from each sample and placed in a separate screw tube, and 10 mL of methanol were added. […]

[4] = Preliminary study of cooling sensation intensity; assay type: in vivo; settings: similar contents
Description: Whereas the content of the methyl menthol derivative or cooling agent other than a methyl menthol derivative as a cooling ingredient was 2000 ppm in the abovementioned Examples 1-3 and in Comparative Examples 2 and 4, the content of the cooling ingredient menthol in the abovementioned Comparative Examples 1 and 3 was set to 5,000 ppm, thus adjusting the cooling sensation intensity as much as possible to facilitate comparison, in order to assess cooling sensation intensity in the present sensory evaluation.

[5] = cigarettes (combustion smoking articles)
[6] = tobacco sticks (heat-not-burn smoking articles)

Row | Structure (SMILES) | Retention index (RI) [1] | Residual rate [2, 5] [%] | Residual rate [2, 6] [%] | Migration from tobacco filler portion to filter portion, post-storage ([3]; closed system (Lami-Zip bag), 5 days in an incubator, FIGS. 10-12) | Migration from tobacco filler portion to filter portion, pre-storage ([3]; immediately after addition, GC/MS total ion chromatograms, FIGS. 7-9) | Cooling sensation intensity compared with methyl menthol derivatives and other cooling agents [4]
1 | CC(C)[C@@H]1CC[C@@H](C)C[C@H]1OCCO [COOLACT® 5, 2-L-menthoxyethanol] | 1414 |  |  |  |  | 
2 | CC1CCC(C(C)C)C(OCC(O)CO)C1 [COOLACT® 10, 3-L-menthoxypropane-1,2-diol] | 1674 |  |  |  |  | 
3 | CC(O)CC(=O)O[C@@H]1C[C@H](C)CC[C@H]1C(C)C (stereo partly drawn) [COOLACT® 20, L-menthyl-3-hydroxybutyrate] | 1611 |  |  |  |  | 
4 | CC(C)C1CCC(C)(C)CC1C(=O)NCC(O)c1ccccc1 (stereo not shown) [COOLACT® 370, N-(2-hydroxy-2-phenylethyl)-2-isopropyl-5,5-dimethylcyclohexane-1-carboxamide] | 2477 | 98.5 | 100 | had not migrated from the tobacco filler portion to the filter portion | did not migrate from the tobacco filler portion to the filter portion | 
5 | CC1CCC(C(C)C)C(O)C1 (stereo not shown) [Menthol] | 1173 | 15.9 | 10.4 |  |  | weaker cooling sensation intensity
6 | CCOC(=O)CNC(=O)C1CC(C)CCC1C(C)C (stereo not shown) [Symcool® WS-5, ethyl-2-(p-menthane-3-carboxamido)acetate] | 1942 |  |  |  |  | 
7 | CNC(=O)C(C)(C(C)C)C(C)C [Symcool® WS-23, 2-isopropyl-N,2,3-trimethylbutyramide] | 1287 | 33.5 | 50.2 |  |  | 
